Reference: US20260226427A1, “TEST SYSTEM COMPRISING STABLY CYP-TRANSFECTED OR TRANSDUCED MAMMALIAN CELLS” (BRANDENBURGISCHE TECHNISCHE UNIVERSITÄT COTTBUS-SENFTENBERG, priority 2023, published 2026)
Read-outs that look alike come from different tables or passages of the source.

Assays:
CYP3A4 [1] = molecular target: T1, CYP3A4 (Homo sapiens, UniProt P08684)
CYP3A4 [2] = molecular target: T1, CYP3A4; remark: listed apart in the source
CYP1A2 = molecular target: T2, CYP1A2 (Homo sapiens, UniProt P05177)
T2 sequence (P05177 2-516 limits assumed): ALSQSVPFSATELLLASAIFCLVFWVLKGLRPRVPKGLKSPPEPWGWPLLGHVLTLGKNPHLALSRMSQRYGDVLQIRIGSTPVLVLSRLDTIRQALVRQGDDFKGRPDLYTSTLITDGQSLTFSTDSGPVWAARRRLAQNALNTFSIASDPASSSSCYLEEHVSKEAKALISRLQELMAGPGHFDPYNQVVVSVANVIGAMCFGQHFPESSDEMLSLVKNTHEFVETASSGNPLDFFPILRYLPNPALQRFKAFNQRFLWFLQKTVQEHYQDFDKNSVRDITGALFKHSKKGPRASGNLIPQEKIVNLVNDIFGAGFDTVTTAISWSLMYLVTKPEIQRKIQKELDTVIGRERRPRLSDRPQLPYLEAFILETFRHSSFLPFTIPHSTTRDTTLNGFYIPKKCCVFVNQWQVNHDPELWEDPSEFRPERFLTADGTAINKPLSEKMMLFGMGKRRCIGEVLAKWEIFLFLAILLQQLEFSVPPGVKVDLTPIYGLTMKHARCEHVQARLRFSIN

T1 sequence (P08684 2-503 limits assumed): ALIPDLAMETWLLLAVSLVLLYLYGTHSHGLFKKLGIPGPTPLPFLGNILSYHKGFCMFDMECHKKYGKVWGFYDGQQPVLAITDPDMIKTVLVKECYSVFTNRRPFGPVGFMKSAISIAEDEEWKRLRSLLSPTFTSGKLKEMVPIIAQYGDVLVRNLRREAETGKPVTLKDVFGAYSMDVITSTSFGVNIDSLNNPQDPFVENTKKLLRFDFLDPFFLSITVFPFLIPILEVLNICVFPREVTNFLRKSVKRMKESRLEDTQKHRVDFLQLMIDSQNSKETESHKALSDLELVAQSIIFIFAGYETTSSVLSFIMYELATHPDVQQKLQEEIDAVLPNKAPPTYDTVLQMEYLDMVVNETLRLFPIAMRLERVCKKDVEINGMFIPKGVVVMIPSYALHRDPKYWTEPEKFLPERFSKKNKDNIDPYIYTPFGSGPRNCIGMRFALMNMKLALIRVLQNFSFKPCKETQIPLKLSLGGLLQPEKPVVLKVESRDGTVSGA

Structure (SMILES): C[C@]12CC[C@H]3[C@@H](CCC4=CC(=O)CC[C@@]43C)[C@@H]1CC[C@@H]2O [testosterone]
- yield of main metabolite (6β-hydroxytestosterone) in 200 μL preparation (CYP3A4 [1]): up to 100 ng
- yield of main metabolite in 200 μL metabolism preparation (CYP3A4 [1]): 100 to 200 ng
- yield of main metabolite m(6β-OH-T) (CYP3A4 [2]): 17.3 ± 1.4 µg

Structure (SMILES): CCOc1ccc(NC(C)=O)cc1 [phenacetin]
- phenacetin metabolite production (CYP1A2; 2 h): 17 µg
- phenacetin metabolite production (CYP1A2; 48 h): 101 µg
- yield of main metabolite m(acetaminophen) (CYP1A2; 48 h): 101 ± 4 µg
